Reference: patent publication EP0579733B1, “THIAZOLIDINEDIONE DERIVATIVES, PRODUCTION AND USE THEREOF” (priority 1991, dated 1992)

Experiments:
mice = experiment: Toxicity after oral administration to mice (lethality); format: in vivo; details: orally administered to mice in a dose of 300 mg/kg
Excerpt: The compound (I), the pharmacologically acceptable salt thereof, or the pure stereoisomeric form thereof has hypoglycemic and hypolipidemic activities. Further, the compound (I), the pharmacologically acceptable salt thereof or the pure stereoisomeric form thereof has low toxicity. […] Therefore, the compound (I), its pharmacologically acceptable salt or pure stereoisomeric form can be used for treatment of diabetes of mammals including man as it is or by combining with a known pharmacologically acceptable carrier, excipient, filler and the like.

KKA^y-mice = experiment: Hypoglycemic and hypolipidemic activities in mice; format: in vivo; details: 0.005% by weight in chow diet, given freely for 4 days, KKA^y-mice (male, 9 to 10 weeks old); for Hypoglycemic activity (%): % reduction of blood sugar level from control groups, glucose oxidase method; for Hypolipidemic activity (%): % reduction of plasma lipid level from control groups, Kit Cleantech TG-S
Method: Test compounds were mixed with laboratory chow diet (CE-2, Clea Japan Inc., Tokyo, Japan) in a proportion of 0.005% by weight. The dietary admixture was given freely to KKA^y-mice (male, 9 to 10 weeks old) for 4 days. During the period, water was given freely. Blood was collected from the orbitral venous plexus. The blood sugar level was determined according to glucose oxidase method. The plasma lipid level was enzymatically determined by using Kit Cleantech TG-S (Iatron, Tokyo, Japan). Values represent % reduction from control groups.

CC(O)c1ccc(CCOc2ccc(CC3SC(=O)NC3=O)cc2)nc1 (stereo not drawn) [Example 1, 5-[4-[2-[5-(l-hydroxyethyl)-2-pyridyl]ethoxy]benzyl]-2,4-thiazolidinedione]
lethality (mice): no lethal case was observed | Hypoglycemic activity (%) (KKA^y-mice): 46% | Hypolipidemic activity (%) (KKA^y-mice): 5%

CC(=O)c1ccc(CCOc2ccc(CC3SC(=O)NC3=O)cc2)nc1 (stereo not drawn) [Example 2, 5-[4-[2-(5-acetyl-2-pyridyl)ethoxy]benzyl]-2,4-thiazolidinedione]
lethality (mice): no lethal case was observed | Hypoglycemic activity (%) (KKA^y-mice): 56% | Hypolipidemic activity (%) (KKA^y-mice): 43%
